“Also recorded” adds a separate entry of the source.
Columns and labels:
His-tagged huANT3 = molecular target: T1, His-tagged huANT3 (Homo sapiens, UniProt P12236); assay: 125I-compound 24 competition binding to recombinant His-tagged huANT3 immobilized on Ni beads; set-up: made in house; host or cells: baculovirus-infected Trichoplusia ni cells; mitochondria solubilized and captured on Ni-agarose beads (Qiagen); conditions: His-tagged huANT3 on Ni-agarose beads, 1 hour at 4° C.; FIG. 19
T1 sequence (P12236 1-298): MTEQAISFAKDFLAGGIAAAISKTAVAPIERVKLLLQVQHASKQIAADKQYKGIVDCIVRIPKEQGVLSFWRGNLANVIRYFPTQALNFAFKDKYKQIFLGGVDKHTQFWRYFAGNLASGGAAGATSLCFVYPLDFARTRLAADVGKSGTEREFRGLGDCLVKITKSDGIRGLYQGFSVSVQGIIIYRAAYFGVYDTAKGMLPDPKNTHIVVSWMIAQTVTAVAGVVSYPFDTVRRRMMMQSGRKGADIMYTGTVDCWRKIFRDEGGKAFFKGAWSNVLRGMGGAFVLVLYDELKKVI
Procedure: Competitive binding assays were also performed using recombinant His-tagged huANT3 (see Example 3) immobilized on Ni beads (FIG. 19) instead of mitochondria. To prepare the bead-immobilized huANT3, mitochondria from T. ni cells infected with a baculovirus expressing huANT3 (see Example 3) were solubilized with 0.5% O-glucopyranoside in the presence of 0.5 nM ^125I-compound 24 Ni-agarose beads (Qiagen, Hilden, Germany), and various concentrations of ATR or BKA as unlabeled competitors. After 1 hour at 4° C., the beads were washed and radioactivity that remained associated with the beads was counted.

Sf9/huANT3 mitochondria [1] = molecular target: T2, Sf9/huANT3 mitochondria (Homo sapiens, UniProt P12236); assay: Homologous competition of [32P]ATP binding to Sf9/huANT3 mitochondria; conditions: FIG. 8
T2 construct: expressed in transfected cells; host or cells: Spodoptera frugiperda Sf9 cells infected with recombinant baculovirus; isolated mitochondria
T2 sequence (P12236 1-298): T1 sequence (P12236 1-298)
Procedure: To estimate maximal binding and the extent of overexpression of the huANT3, 25 μg of membrane protein was incubated with varying amounts of [^32P]ATP (1-500 μM) in binding buffer (120 mM KCl, 10 mM Tris, 1 mM EDTA, pH 7.4) for 2 hr at room temperature. The membranes with bound ATP were sedimented by centrifugation at 5000 g for 5 min, and washed once with binding buffer. Membrane pellets were then mixed with 5 ml scintillation cocktail and counted.
(§1) Sf9 cells expressing huANT3 were grown in spinner flasks. The cells were harvested by centrifugation at 2,000 g for 5 min. The cell pellet was resuspended in MSB and subjected to 3 freeze-thaw cycles. Cell membranes and debris were removed by centrifugation at 600 g for 5 min; mitochondria were collected by centrifuging the supernatant at 20,000 g for 15 min. The mitochondrial pellets were suspended in MSB, and used for binding assays as described above. Homologous competition of [^32P]ATP binding was performed using 25 μg mitochondrial protein per assay.

[2] = molecular target: T3, T. ni/huANT3 mitochondria (Homo sapiens, UniProt P12236); assay: 125I-compound 24 competition binding (Tube Assay), mitochondria from T. ni cells expressing huANT3
T3 construct: expressed in transfected cells; host or cells: Trichoplusia ni cells infected with recombinant baculovirus (cells prepared by PharMingen); isolated mitochondria
T3 sequence (P12236 1-298): T1 sequence (P12236 1-298)
Procedure: Atractyloside analogs (Example 6; Table 1; see also Examples 7-9) were also used in pseudo-homologous competition binding assays using T. ni/huANT3 mitochondria or bovine mitochondria. Mitochondria from noninfected T. ni cells, or T. ni cells infected with a baculovirus expressing huANT3 (see Example 3) were prepared as follows: […] cells were prepared by a subcontractor (PharMingen, San Diego, Calif.) as portions of about 250 mg of cells per tube. Each portion was suspended in 1 ml of MSB with protease inhibitors (leupeptin, final concentration 10 ug/ml; pepstatin, final concentration 10 ug/ml; aprotinin, final concentration, 2 ug/ml; phenylmethylsulfonyl fluoride, [PMSF], final concentration, 100 μM; all from Sigma Chemical Co., St. Louis, Mo.). The resuspended cell suspensions were frozen and thawed twice, then homogenized using a rotating teflon-coated probe and a close-fitting glass container (10 passes). The cellular homogenate was centrifuged (3,700 rpm, approximately 1,500×g) at 4° C. for 5 minutes; this supernatant from the first spin was saved. The pellet was washed with about 500 μl of MSB with protease inhibitors, centrifuged (3,800 rpm, approximately 1,600×g) at 4° C. for 5 minutes, and supernatant from this spin was combined with the supernatant from the first spin. […]
The mitochondrial preparations were divided into aliquots (typically, 50μl for T. ni mitochondria or 20 μl for bovine mitochondria) and then either used directly in assays or flash frozen and stored at −80° C. The total protein content in the mitochondrial preparations was determined using the enhanced protocol (30 minutes at 60° C.; see http://www.ruf.rice.edu/˜bioslabs/methods/protein/BCA.html) of the bicinchoninic acid (BCA) assay (available in kit form from Pierce, Rockford, Ill.). […]
Unbound ^125I-compound 24 was removed by aspiration. […] The resultant pellets were aspirated and the radioactivity (dpm) in each was determined by gamma counting.

Sf9/huANT3 mitochondria [3] = molecular target: T2, Sf9/huANT3 mitochondria; assay: [125I]atractyloside competition binding to Sf9/huANT3 mitochondria; conditions: 0.5 nM [125I]atractyloside
Procedure: as §1
These findings are consistent with the presence of functional huANT3 in the mitochondrial preparations.
Atractyloside analogs (Example 6; Table 1; see also Examples 7-9) were used in pseudo-homologous competition binding assays using Sf9/huANT3 mitochondria. Mitochondria (see Example 12, 25 μg/tube) were incubated with 0.5 nM [^125I]atractyloside and varying concentrations of non-radiolabeled atractyloside or fluorescent atractyloside derivatives as described above (FIGS. 7-9).

C=C1[C@@H]2CCC3[C@@](CC[C@@H]4[C@H](C(=O)O)C[C@@H](O[C@@H]5O[C@H](CO)[C@@H](OS(=O)(=O)[O-])[C@H](OS(=O)(=O)[O-])[C@H]5OC(=O)CC(C)C)C[C@@]34C)(C2)[C@@H]1O.[K+].[K+] (some centres unmarked) [ATR, atractyloside]
competitive inhibition of 125I-compound 24 binding (in words) (His-tagged huANT3): effectively compete with compound 24
displacement of ATP binding (Sf9/huANT3 mitochondria [1]): displaced by low concentrations of atractyloside
affinity relative to the low affinity ANT ligand ADP ([2]; mitochondria from T. ni cells expressing huANT3, 1 μg protein/tube, FIG. 14): about 1,000 fold
competitive inhibition of 125I-compound 24 binding (in words) ([2]; mitochondria from T. ni cells expressing huANT3, FIGS. 12, 14, 15): slightly higher affinity than compound 24; also recorded: increasingly inhibited by higher concentrations of ATR
cpm [125I]Atractyloside bound in the presence of ATR derivative (Sf9/huANT3 mitochondria [3]; [ATR Derivative] 1.0 nM): 224 cpm
cpm [125I]Atractyloside bound in the presence of ATR derivative (Sf9/huANT3 mitochondria [3]; [ATR Derivative] 5.0 nM): 146 cpm
cpm [125I]Atractyloside bound in the presence of ATR derivative (Sf9/huANT3 mitochondria [3]; [ATR Derivative] 10 nM): 42 cpm
cpm [125I]Atractyloside bound in the presence of ATR derivative (Sf9/huANT3 mitochondria [3]; [ATR Derivative] 50 nM): 26 cpm
cpm [125I]Atractyloside bound in the presence of ATR derivative (Sf9/huANT3 mitochondria [3]; [ATR Derivative] 1,000 nM): 36 cpm
cpm [125I]Atractyloside bound in the presence of ATR derivative (Sf9/huANT3 mitochondria [3]; [ATR Derivative] 5,000 nM): 45 cpm
cpm [125I]Atractyloside bound in the presence of ATR derivative (Sf9/huANT3 mitochondria [3]; [ATR Derivative] 10,000 nM): 0 cpm

Source: patent US6906175B2, “Production of adenine nucleotide translocator (ANT), novel ANT ligands and screening assays therefor” (priority 1998, dated 2005)
